{"source": "patent US20240374563A1", "about": "“ANTICHOLINERGIC COMPOUNDS FOR USE IN TREATING NEUROMUSCULAR DISORDERS” (UNIVERSITY OF MONTRÉAL, priority 2022, published 2024)", "key": {"PSC purinergic receptors": {"tested_on": "PSC purinergic receptors", "assay": "Calcium imaging of PSCs: Ca2+ responses to local ATP application", "format": "in vivo, SOD1^G37R mice"}, "SOD1^G37R mice": {"tested_on": "SOD1^G37R mice", "assay": "Gait analysis (footprint test)", "format": "in vivo, mouse", "conditions": "P520; treatment from disease onset; N=8", "description": "Finally, we aimed to better characterize the walking pattern of the mice following treatment. We measured the gait by performing a footprint analysis using inked paws.\nGait was assessed using the footprint test. Paws were inked with a nontoxic paint (fore-paws in blue and hind-paws in red), mice were placed on a restricted pathway on a white paper sheet (30 cm long, 6 cm wide) and free to walk along the walkway. Five footsteps from each run were measured for the following parameters (cm): (1) stride length ([…]) and (2) Step width (distance between left and right paws). The mean value of each set of outcomes was calculated for statistical analysis."}}, "data": [{"smiles": "NC(=O)C(c1ccccc1)(c1ccccc1)[C@@H]1CCN(CCc2ccc3c(c2)CCO3)C1", "note": "[darifenacin]", "values": [{"measurement": "PSC Ca2+ response to ATP, Darifenacin vs DMSO vs non-treated wild type", "setting": "PSC purinergic receptors; SOD1G37R mice, 10 mg/kg orally for 5 days", "result": "no difference"}, {"measurement": "effect on purinergic signaling of PSCs (Ca2+ responses to local ATP)", "setting": "PSC purinergic receptors; SOD1 mice, 10 or 15 mg/kg for 30 days", "result": "no effect"}, {"measurement": "step width", "setting": "SOD1^G37R mice", "result": "2.62±0.16", "unit": "cm"}, {"measurement": "stride length", "setting": "SOD1^G37R mice", "result": "4.13±0.36", "unit": "cm"}]}]}
